{"source": "patent US20250134952A1", "about": "“METHODS FOR IMPROVING THE EFFICACY OF HDAC INHIBITOR THERAPY AND PREDICTING THE RESPONSE TO TREATMENT WITH HDAC INHIBITOR” (INSTITUT NATIONAL DE LA SANTÉ ET DE LA RECHERCHE MÉDICALE, priority 2021, published 2025)", "key": {"[1]": {"system": "MCF7shctrl and MCF7shTau subclones", "experiment": "Cell death by staining and flow cytometric analysis (Zombie NIR)", "type": "cell-based, human", "details": "100 nM TSA, 48 hours", "procedure": "(§1) FIG. 1: Tau inhibition increases MCF7 breast cancer cell line sensitivity to TSA. (A) Tau protein expression in MCF7, MCF7shctrl and shTau were quantify by Elisa. (B) Effect of 100 nM TSA (48 h) on cell death in the MCF7shctrl and MCF7shTau subclones. Cell death was determined by staining and flow cytometric analysis as described in the materials and methods. (C) Effect of 100 nM TSA (48 h) on apoptosis in the MCF7shctrl and MCF7shTau subclones. Apoptosis was determined by flow cytometric analysis of the PI-positive and Annexin-V-positive cells as described in the materials and methods. (D) Cell cycle distribution was determined by FACS analysis of combined propidium iodide and EdU staining in MCF7shctrl and MCF7shTau in the absence or presence 100 nM TSA, 48 h. Data are mean±SD **P<0.01***P<0.001. […]\n(§2) SH-SY5Y human neuroblastoma cells expressing Tau4R tagged with the streptavidin-binding peptide (SBP) (referred as SH-SY5Y-(SBP)Tau4R) (Chauderlier et al., 2018), SH-SY5Y-Tet-on-Tau4R, Hela cells, MCF7 and MDA-MB-231 were cultured in Dulbecco's Modified Eagle's Medium with 10% fetal bovine serum, 2 mM L-glutamine and 50 U/ml penicillin/streptomycin (Gibco) at 37° C. in 5% CO2 humidified air. […] For stable clones, luciferase activities were measured using the luciferase assay system (Promega) and normalized against protein concentration. […]"}, "[2]": {"system": "MCF7shctrl and MCF7shTau subclones", "experiment": "Apoptosis by flow cytometry of PI-positive and Annexin-V-positive cells", "type": "cell-based, human", "details": "100 nM TSA, 48 h", "procedure": "as §1, §2"}, "[3]": {"system": "HP1α clusters in MCF7shctrl and shTau cells", "experiment": "HP1α clusters per nucleus, confocal immunofluorescence", "type": "cell-based, human", "details": "100 nM TSA, 24 h", "procedure": "(A) Representative confocal sections of MCF7shctrl and shTau cells untreated or treated with 100 nM TSA for 24 h. […] (B) Quantification of HP1α clusters per nuclei visualized as described previously and realized on three independent experiments. (C) GADD45a and (D) p21 (CDKN1a) expression in MCF7shctrl and shTau cells untreated or treated with 100 nM TSA for 24 h were analyzed by real-time PCR and normalized to RPLO. Results are expressed, relative to the basal activity set to 1, as the mean±SD of three independent assays. (E) Tau tethering prevents adjacent reporter gene activity induced by TSA. GAL4UAS responsive luciferase reporter Hela stable cell line was transfected with GAL4DBD (GAL4) or GAL4DBD-Tau4R and then, 24 h later, treated with TSA (600 nM) for 24 h. The luciferase activity was determined as described in the Materials and Methods. (F) Ectopic Tau4R expression prevents adjacent reporter gene activity induced by TSA. […] The luciferase activity was determined as described in the Materials and Methods. […]\nMCF7shctrl, MCF7shTau or transfected Hela cells with Tau4R and GFP-HP1α were fixed in 4% paraformaldehyde for 30 min at room temperature. […] Slides were then analyzed with a Zeiss LSM710 confocal laser scanning microscope (60× magnification). Images were collected in the Z direction at 0.80 μm intervals and quantifications were realized using the Image J plug-in."}, "[4]": {"system": "HP1β clusters in Hela cells", "experiment": "GFP-HP1β clusters per nuclei, confocal microscopy", "type": "cell-based", "details": "TSA 300 nM, 24 h, control Hela cells", "procedure": "(A) Single confocal sections of Hela cells transfected with […], with or without Tau4R or TauP301L and treated 24 h later with the TSA (300 nM) for 24 h. Tau C-terminus antibodies and GFP fluorescence were used to visualize total Tau protein and HP1β respectively. Representative images are shown. (B) Quantification of HP1β clusters per nuclei visualized as described previously and realized on three independent experiments. Data are mean±SD *P<0.05 ***P<0.001.\nMCF7shctrl, MCF7shTau or transfected Hela cells with Tau4R and GFP-HP1α were fixed in 4% paraformaldehyde for 30 min at room temperature. Permeabilization was carried out in 0.2% Triton X-100 in phosphate-buffered saline for 10 min at room temperature. After 1 h saturation in 2% bovine serum albumin, immunostaining was performed using Tau antibody (recognizing the C-terminal domain of Tau). […] Nuclear staining was performed by adding 1/2000 DAPI in phosphate-buffered saline for 10 min. Slides were then analyzed with a Zeiss LSM710 confocal laser scanning microscope (60× magnification). Images were collected in the Z direction at 0.80 μm intervals and quantifications were realized using the Image J plug-in.\nTo this end, we first performed GST-pulldown analysis using purified core histones. As shown previously, Tau interacted specifically with core histones as detected by H3, H4, H2A and H2B antibodies (data not shown). […]"}, "[5]": {"details": "Tau-knockdown cells (MCF7shTau)"}}, "data": [{"smiles": "CC(/C=C/C(=O)NO)=C\\[C@@H](C)C(=O)c1ccc(N(C)C)cc1", "note": "[TSA, 2,4-Heptadienamide, 7-[4-(dimethylamino)phenyl]-N-hydroxy-4,6-dimethyl-7-oxo-, (2E,4E,6R)-]", "values": [{"measurement": "number of dead cells", "setting": "[1]; [5]", "result": "> 50", "unit": "%"}, {"measurement": "number of dead cells", "setting": "[1]; sh-ctrl cells (MCF7shctrl)", "result": 38, "unit": "%"}, {"measurement": "apoptosis", "setting": "[2]; [5]", "result": 48, "unit": "%"}, {"measurement": "apoptosis", "setting": "[2]; sh-ctrl cells (MCF7shctrl)", "result": 30, "unit": "%"}, {"measurement": "HP1α clusters per nucleus", "setting": "[3]; Tau knocked down MCF7 cells", "result": 3, "unit": "clusters"}, {"measurement": "HP1α clusters per nucleus", "setting": "[3]; sh-control MCF7 cells", "result": "five"}, {"measurement": "number of HP1 clusters following TSA treatment", "setting": "[4]", "result": "decrease"}]}]}
